From ChEMBL document CHEMBL1137488, “Strategies toward improving the brain penetration of macrocyclic tertiary carbinamine BACE-1 inhibitors” (Bioorg Med Chem Lett, 2007)

System: not listed separately
Assay: Drug level in mouse brain at 30 mg/kg, ip after 2 hrs
Type: ADME, organism-based
Set-up: dose 30 mg/kg, route intraperitoneal
Conditions: read-out: Drug uptake

Q: With CC1CCc2cccc(c2)C[C@@](C)(N)C(=O)OCc2cc(nc(N(C)S(C)(=O)=O)c2)CC1 (stereo partly drawn) as the compound, how does the concentration at 2 h read?
A: 637 nM

System: P-glycoprotein
Assay: Apparent permeability in human KBV1 cells overexpressing P-glycoprotein
Type: ADME, cell-based, KB-V1
Conditions: not given

Q: With CN(c1cc2cc(n1)N(Cc1ccccc1)CCCCc1cccc(c1)C[C@@](C)(N)C(=O)OC2)S(C)(=O)=O as the compound, how does the Papp read?
A: 20 ×10⁻⁶ cm/s

Q: Which Papp does the source give for CC1CCc2cccc(c2)C[C@@](C)(N)C(=O)OCc2cc(nc(N(C)S(C)(=O)=O)c2)CC1 (stereo partly drawn) here?
A: 14 ×10⁻⁶ cm/s

Q: For CN(c1cc2cc(n1)CCC(c1ccccc1)CCc1cccc(c1)C[C@@](C)(N)C(=O)OC2)S(C)(=O)=O (stereo partly drawn), which Papp is on record?
A: 9 ×10⁻⁶ cm/s

Q: With CN(c1cc2cc(n1)NCCCCc1cccc(c1)C[C@@](C)(N)C(=O)OC2)S(C)(=O)=O as the compound, how does the Papp read?
A: 11 ×10⁻⁶ cm/s

Q: With CN(c1cc2cc(n1)N(CC1CC1)CCCCc1cccc(c1)C[C@@](C)(N)C(=O)OC2)S(C)(=O)=O as the compound, how does the Papp read?
A: 8 ×10⁻⁶ cm/s

Q: Which Papp does the source give for CC1CCc2cccc(c2)C[C@@](C)(N)C(=O)OCc2cc(cc(N(C)S(C)(=O)=O)c2)CC1 (stereo partly drawn) here?
A: 16 ×10⁻⁶ cm/s

Q: Which Papp does the source give for CN(c1cc2cc(n1)CCCCCc1cccc(c1)C[C@@](C)(N)C(=O)OC2)S(C)(=O)=O here?
A: 29 ×10⁻⁶ cm/s
